Experiments:
[1] = target: T1, human serotonin transporter (hSERT) (Homo sapiens, UniProt P31645); test: Screening for human serotonin transporter (hSERT) antagonists using a scintillation proximity assay, competition with [3H]-Citalopram; format: binding; conditions: hSERT SPA, membranes of HEK-293 cells expressing recombinant hSERT
T1 construct: expressed in transfected cells; host or cells: HEK-293
Procedure: The screening assay of this example was used to determine the affinity of ligands at the hSERT transporter by competition with [^3H]-Citalopram.
Scintillation Proximity Assay (SPA) works by bringing radioligand within close proximity to the bead's scintillant to stimulate light emission. In this assay, the receptor-containing membranes were pre-coupled to the SPA beads and the binding of the appropriate radioligand to the transporter was measured. The light emission was proportional to the amount of bound radioligand. Unbound radioligand produced no signal as a result of distant proximity to scintillant (lack of energy transfer). […]
(§1) Cell membranes were prepared using a membrane preparation buffer of 50 mM TRIS (pH 7.4). […] After a second centrifugation, the pellet was re-homogenized and brought to a final volume determined during the assay. […]
The % inhibition was calculated for each compound tested [(Compound counts per minute (CPM) at maximum concentration-Non-Specific CPM)/Total CPM*100]. […]
[formula] where max=total binding, min=non specific binding, x=concentration (M) of the tested compound and n=Hill slope. The inhibition dissociation constant (Ki) of each compound was determined according to the method of Cheng-Prusoff and then converted into negative logarithm (pKi) of the Ki.

[2] = target: T2, human norepinephrine transporter (hNET) (Homo sapiens, UniProt P23975); test: Screening for compounds active at human norepinephrine transporter (hNET) using a scintillation proximity assay, competition with [3H]-Nisoxetine; format: binding; conditions: hNET SPA, membranes of HEK-293 cells expressing recombinant hNET
T2 construct: expressed in transfected cells; host or cells: HEK-293 (Clone: HEK-hNET #2)
T2 sequence (P23975 whole entry): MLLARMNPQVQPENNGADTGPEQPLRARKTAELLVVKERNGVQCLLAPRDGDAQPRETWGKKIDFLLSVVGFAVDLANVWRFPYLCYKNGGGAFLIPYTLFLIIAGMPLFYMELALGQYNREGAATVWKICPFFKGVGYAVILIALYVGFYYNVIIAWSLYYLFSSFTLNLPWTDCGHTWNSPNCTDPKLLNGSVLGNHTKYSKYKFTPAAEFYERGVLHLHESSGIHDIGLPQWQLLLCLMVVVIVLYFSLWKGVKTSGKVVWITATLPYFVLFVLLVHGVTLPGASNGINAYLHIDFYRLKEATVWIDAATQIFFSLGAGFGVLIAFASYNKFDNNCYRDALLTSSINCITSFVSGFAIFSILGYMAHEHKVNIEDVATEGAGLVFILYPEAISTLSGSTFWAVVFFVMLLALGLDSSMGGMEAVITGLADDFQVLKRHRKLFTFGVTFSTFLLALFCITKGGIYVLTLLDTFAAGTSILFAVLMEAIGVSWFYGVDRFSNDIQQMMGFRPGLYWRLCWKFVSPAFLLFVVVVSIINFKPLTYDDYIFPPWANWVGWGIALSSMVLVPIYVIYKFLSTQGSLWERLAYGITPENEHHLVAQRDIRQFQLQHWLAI
Procedure: This assay was used to determine the affinity of ligands for the hNET transporter by competition with [^3H]-Nisoxetine. As in the hSERT assay of the above example, receptor-containing membranes were pre-coupled to the SPA beads and the binding of the appropriate radioligand to the transporter was measured. The light emission was proportional to the amount of bound radioligand, with unbound radioligand producing no signal.
HEK-293 cells (Tatsumi et al., Eur. J. Pharmacol. 1997, 30, 249-258) stably expressing recombinant hNET (Clone: HEK-hNET #2) were maintained with media (DMEM hi glucose with 10% FBS, 300 μg/ml G418 and 2 mM L-Glutamine) and incubated at 37° C. with 5% CO2. Cells were released from culture flasks using PBS for 1-2 minutes. […]
as §1
^3[H] […] The mixtures were allowed to stand at room temperature for one hour, and were then counted on a Packard TopCount LCS, a generic SPA counting protocol settings (Energy Range: Low, Efficiency Mode: Normal, Region A: 1.50-35.00, Region B: 1.50-256.00, Count Time (min.): 0.40, Background Subtract: none, Half-Life Correction: no, Quench Indicator: tSIS, Platemap blank subtraction: No, Cross talk reduction: Off). […]

T1 sequence (P31645 whole entry): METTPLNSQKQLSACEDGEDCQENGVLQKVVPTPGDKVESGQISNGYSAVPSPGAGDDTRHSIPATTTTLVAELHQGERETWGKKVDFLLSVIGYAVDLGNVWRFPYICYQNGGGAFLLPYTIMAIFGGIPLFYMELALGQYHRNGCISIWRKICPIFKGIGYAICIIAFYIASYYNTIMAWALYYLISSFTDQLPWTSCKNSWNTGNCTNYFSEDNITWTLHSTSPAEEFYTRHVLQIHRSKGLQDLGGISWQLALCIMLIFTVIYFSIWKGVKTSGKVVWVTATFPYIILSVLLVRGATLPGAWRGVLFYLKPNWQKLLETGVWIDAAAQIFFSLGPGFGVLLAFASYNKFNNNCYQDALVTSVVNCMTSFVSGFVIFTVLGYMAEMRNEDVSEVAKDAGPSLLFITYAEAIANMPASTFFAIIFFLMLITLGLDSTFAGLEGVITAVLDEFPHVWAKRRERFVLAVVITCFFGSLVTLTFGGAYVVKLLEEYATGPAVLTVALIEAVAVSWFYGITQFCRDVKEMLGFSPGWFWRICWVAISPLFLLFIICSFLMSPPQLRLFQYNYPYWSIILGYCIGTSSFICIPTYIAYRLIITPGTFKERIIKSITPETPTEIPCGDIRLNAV

- IC50 [1]: ~1.78 nM
- IC50 [2]: ~17.8 nM
SMILES: CNCC[C@@H](c1ccccc1)c1c[nH]c2nccc(OC)c12 [compound 23, [(S)-3-(4-Methoxy-1H-pyrrolo[2,3-b]pyridin-3-yl)-3-phenyl-propyl]-methyl-amine]

— US7638517B2, “3-Amino-1-arylpropyl azaindoles and uses thereof” (Roche Palo Alto LLC, priority 2005, dated 2009)
